Results reported in patent publication US20020035061A1, “COMPOSITIONS AND METHODS FOR TREATING INFECTIONS USING CATIONIC PEPTIDES ALONE OR IN COMBINATION WITH ANTIBIOTICS” (priority 1996, published 2002).
Where two headings read alike, the source gives them in different places.

Experiments:
[1] = test system: bacterial isolates; test: microbe, parasite or virus in culture; assay type: cell-based
[2] = test system: S. aureus; assay type: cell-based; details: for Peptide MIC values: agarose dilution
[3] = P. aeruginosa PA032, Tobramycin section
[4] = S. aureus SA014 (also SA014 MRSA)
[5] = S. aureus SA025 (also SA025 MRSA)
[6] = S. maltophilia SMA029, Tobramycin section
[7] = peptide + Tobramycin, P. aeruginosa PA032
[8] = peptide + Tobramycin, S. maltophilia SMA029

ILKKFPFFPFRRK [MBI 11A1CN]
Peptide MIC Alone ([1]; 3. Ciprofloxacin, S. aureus SA10): 128 mg/L
Peptide MIC Alone ([1]; 3. Ciprofloxacin, S. aureus SA11): >128 mg/L
Peptide MIC Alone ([1]; 4. Gentamicin, E. faecium EFM004): 32 mg/L
Peptide MIC Alone ([1]; 4. Gentamicin, S. aureus SA014 MRSA): 8 mg/L
Peptide MIC Alone ([1]; 4. Gentamicin, S. epidermidis SE074): 32 mg/L
Peptide MIC Alone ([1]; 4. Gentamicin, S. maltophilia SMA019): >128 mg/L
Peptide MIC Alone ([1]; 4. Gentamicin, S. maltophilia SMA020): >128 mg/L
Mupirocin MIC + Peptide ([1]; E. coli ECO1): 10 mg/L
Peptide MIC + Mupirocin ([1]; E. coli ECO1): 4 mg/L
Peptide MIC Alone ([1]; E. coli ECO1, Mupirocin section): 32 mg/L
Mupirocin MIC + Peptide ([1]; E. coli SBECO2): 30 mg/L
Peptide MIC + Mupirocin ([1]; E. coli SBECO2): 2 mg/L
Peptide MIC Alone ([1]; E. coli SBECO2, Mupirocin section): 128 mg/L
Peptide MIC + Vancomycin ([1]; E. faecalis EFS001): 0.125 mg/L
Peptide MIC Alone ([1]; E. faecalis EFS001): 4 mg/L
Vancomycin MIC + Peptide ([1]; E. faecalis EFS001): 0.5 mg/L
Peptide MIC + Vancomycin ([1]; E. faecalis EFS006): 0.25 mg/L
Peptide MIC Alone ([1]; E. faecalis EFS006): 128 mg/L
Vancomycin MIC + Peptide ([1]; E. faecalis EFS006): 4 mg/L
Peptide MIC + Vancomycin ([1]; E. faecalis EFS007): 0.5 mg/L
Peptide MIC Alone ([1]; E. faecalis EFS007): 128 mg/L
Vancomycin MIC + Peptide ([1]; E. faecalis EFS007): 2 mg/L
Peptide MIC + Vancomycin ([1]; E. faecalis EFS010): 2 mg/L
Peptide MIC Alone ([1]; E. faecalis EFS010): 128 mg/L
Vancomycin MIC + Peptide ([1]; E. faecalis EFS010): 4 mg/L
Peptide MIC + Vancomycin ([1]; E. faecalis EFS012): 8 mg/L
Peptide MIC Alone ([1]; E. faecalis EFS012): 64 mg/L
Vancomycin MIC + Peptide ([1]; E. faecalis EFS012): 32 mg/L
Peptide MIC + Vancomycin ([1]; E. faecalis EFS014): 2 mg/L
Peptide MIC Alone ([1]; E. faecalis EFS014): 4 mg/L
Vancomycin MIC + Peptide ([1]; E. faecalis EFS014): 1 mg/L
Gentamicin MIC + Peptide ([1]; E. faecium EFM004): 64 mg/L
Peptide MIC + Gentamicin ([1]; E. faecium EFM004): 1 mg/L
Peptide MIC + Vancomycin ([1]; E. faecium EFM004): 16 mg/L
Peptide MIC Alone ([1]; E. faecium EFM004): 32 mg/L
Vancomycin MIC + Peptide ([1]; E. faecium EFM004): 0.5 mg/L
Peptide MIC + Vancomycin ([1]; E. faecium EFM007): 16 mg/L
Peptide MIC Alone ([1]; E. faecium EFM007): 64 mg/L
Vancomycin MIC + Peptide ([1]; E. faecium EFM007): 4 mg/L
Peptide MIC + Vancomycin ([1]; E. faecium EFM009): 8 mg/L
Peptide MIC Alone ([1]; E. faecium EFM009): 64 mg/L
Vancomycin MIC + Peptide ([1]; E. faecium EFM009): 4 mg/L
Peptide MIC + Tobramycin ([1]; P. aeruginosa PA026): 0.125 mg/L
Tobramycin MIC + Peptide ([1]; P. aeruginosa PA026): 4 mg/L
Peptide MIC Alone ([1]; P. aeruginosa PA026, Tobramycin section): >128 mg/L
Peptide MIC + Tobramycin ([1]; P. aeruginosa PA032): 0.5 mg/L
Tobramycin MIC + Peptide ([1]; P. aeruginosa PA032): 8 mg/L
Peptide MIC Alone [1, 3]: >128 mg/L
Ciprofloxacin MIC + Peptide ([1]; S. aureus SA10): 16 mg/L
Peptide MIC + Ciprofloxacin ([1]; S. aureus SA10): 4 mg/L
Ciprofloxacin MIC + Peptide ([1]; S. aureus SA11): 32 mg/L
Peptide MIC + Ciprofloxacin ([1]; S. aureus SA11): 1 mg/L
Peptide MIC + Tobramycin [1, 4]: 8 mg/L
Tobramycin MIC + Peptide [1, 4]: 0.125 mg/L
Peptide MIC Alone ([1]; S. aureus SA014 (also SA014 MRSA), Tobramycin section): 16 mg/L
Gentamicin MIC + Peptide ([1]; S. aureus SA014 MRSA): 2 mg/L
Peptide MIC + Gentamicin ([1]; S. aureus SA014 MRSA): 4 mg/L
Peptide MIC + Tobramycin [1, 5]: 4 mg/L
Tobramycin MIC + Peptide [1, 5]: 0.125 mg/L
Peptide MIC Alone ([1]; S. aureus SA025 (also SA025 MRSA), Tobramycin section): 8 mg/L
Gentamicin MIC + Peptide ([1]; S. epidermidis SE074): 1 mg/L
Peptide MIC + Gentamicin ([1]; S. epidermidis SE074): 16 mg/L
Peptide MIC + Tobramycin ([1]; S. haemolyticus SHA001): 0.125 mg/L
Tobramycin MIC + Peptide ([1]; S. haemolyticus SHA001): 2 mg/L
Peptide MIC Alone ([1]; S. haemolyticus SHA001, Tobramycin section): 8 mg/L
Peptide MIC + Tobramycin ([1]; S. haemolyticus SHA005): 0.125 mg/L
Tobramycin MIC + Peptide ([1]; S. haemolyticus SHA005): 4 mg/L
Peptide MIC Alone ([1]; S. haemolyticus SHA005, Tobramycin section): 16 mg/L
Gentamicin MIC + Peptide ([1]; S. maltophilia SMA019): 2 mg/L
Peptide MIC + Gentamicin ([1]; S. maltophilia SMA019): 16 mg/L
Gentamicin MIC + Peptide ([1]; S. maltophilia SMA020): 2 mg/L
Peptide MIC + Gentamicin ([1]; S. maltophilia SMA020): 16 mg/L
Peptide MIC + Tobramycin ([1]; S. maltophilia SMA029): 32 mg/L
Tobramycin MIC + Peptide ([1]; S. maltophilia SMA029): 4 mg/L
Peptide MIC Alone [1, 6]: >128 mg/L
Peptide MIC + Tobramycin ([1]; S. maltophilia SMA030): 64 mg/L
Tobramycin MIC + Peptide ([1]; S. maltophilia SMA030): 2 mg/L
Peptide MIC Alone ([1]; S. maltophilia SMA030, Tobramycin section): >128 mg/L
FIC ([1]; peptide + Ciprofloxacin, S. aureus SA10): 0.53
FIC ([1]; peptide + Ciprofloxacin, S. aureus SA11): 0.50
FIC ([1]; peptide + Gentamicin, E. faecium EFM004): 0.28
FIC ([1]; peptide + Gentamicin, S. aureus SA014 MRSA): 0.56
FIC ([1]; peptide + Gentamicin, S. epidermidis SE074): 0.51
FIC ([1]; peptide + Gentamicin, S. maltophilia SMA019): 0.31
FIC ([1]; peptide + Gentamicin, S. maltophilia SMA020): 0.31
FIC ([1]; peptide + Mupirocin, E. coli ECO1): 0.14
FIC ([1]; peptide + Mupirocin, E. coli SBECO2): 0.05
FIC ([1]; peptide + Tobramycin, P. aeruginosa PA026): 0.50
FIC [1, 7]: 0.50
FIC ([1]; peptide + Tobramycin, S. aureus SA014 (also SA014 MRSA)): 0.50
FIC ([1]; peptide + Tobramycin, S. aureus SA025 (also SA025 MRSA)): 0.50
FIC ([1]; peptide + Tobramycin, S. haemolyticus SHA001): 0.52
FIC ([1]; peptide + Tobramycin, S. haemolyticus SHA005): 0.51
FIC [1, 8]: 0.16
FIC ([1]; peptide + Tobramycin, S. maltophilia SMA030): 0.27
FIC ([1]; peptide + Vancomycin, E. faecalis EFS001): 0.53
FIC ([1]; peptide + Vancomycin, E. faecalis EFS006): 0.50
FIC ([1]; peptide + Vancomycin, E. faecalis EFS007): 0.50
FIC ([1]; peptide + Vancomycin, E. faecalis EFS010): 0.27
FIC ([1]; peptide + Vancomycin, E. faecalis EFS012): 0.25
FIC ([1]; peptide + Vancomycin, E. faecalis EFS014): 0.51
FIC ([1]; peptide + Vancomycin, E. faecium EFM004): 0.50
FIC ([1]; peptide + Vancomycin, E. faecium EFM007): 0.28
FIC ([1]; peptide + Vancomycin, E. faecium EFM009): 0.25
MIC ([2]; S. aureus SA005): 8 mg/L
Peptide MIC values ([2]; S. aureus ATCC 29213): 2 mg/L
Peptide MIC values ([2]; S. aureus MRSA9): 8 mg/L
Peptide MIC values ([2]; S. aureus MRSA13): >128 mg/L
Peptide MIC values ([2]; S. aureus MRSA17): 32 mg/L
Peptide MIC values ([2]; S. aureus SA206): 128 mg/L

ILKKWPWWPWRRK [MBI 11CN]
Peptide MIC + Tobramycin ([1]; A. baumannii ABI001): 16 mg/L
Tobramycin MIC + Peptide ([1]; A. baumannii ABI001): 4 mg/L
Peptide MIC Alone ([1]; A. baumannii ABI001, Tobramycin section): 64 mg/L
Peptide MIC + Tobramycin ([1]; E. coli ECO006): 0.25 mg/L
Tobramycin MIC + Peptide ([1]; E. coli ECO006): 4 mg/L
Peptide MIC Alone ([1]; E. coli ECO006, Tobramycin section): 8 mg/L
Peptide MIC + Piperacillin ([1]; P. aeruginosa 22): 32 mg/L
Piperacillin MIC + Peptide ([1]; P. aeruginosa 22): 4 mg/L
Peptide MIC Alone ([1]; P. aeruginosa 22, Piperacillin section): 64 mg/L
Peptide MIC + Piperacillin ([1]; P. aeruginosa 23): 4 mg/L
Piperacillin MIC + Peptide ([1]; P. aeruginosa 23): 64 mg/L
Peptide MIC Alone ([1]; P. aeruginosa 23, Piperacillin section): 128 mg/L
Peptide MIC + Tobramycin ([1]; P. aeruginosa PA032): 4 mg/L
Tobramycin MIC + Peptide ([1]; P. aeruginosa PA032): 8 mg/L
Peptide MIC Alone [1, 3]: >128 mg/L
Peptide MIC + Piperacillin ([1]; S. aureus 18 MRSA): 16 mg/L
Piperacillin MIC + Peptide ([1]; S. aureus 18 MRSA): 0.5 mg/L
Peptide MIC Alone ([1]; S. aureus 18 MRSA, Piperacillin section): 32 mg/L
Peptide MIC + Piperacillin ([1]; S. aureus 19 MRSA): 1 mg/L
Piperacillin MIC + Peptide ([1]; S. aureus 19 MRSA): 64 mg/L
Peptide MIC Alone ([1]; S. aureus 19 MRSA, Piperacillin section): 8 mg/L
Peptide MIC + Tobramycin ([1]; S. maltophilia SMA029): 2 mg/L
Tobramycin MIC + Peptide ([1]; S. maltophilia SMA029): 64 mg/L
Peptide MIC Alone [1, 6]: >128 mg/L
Peptide MIC + Tobramycin ([1]; S. maltophilia SMA035): 32 mg/L
Tobramycin MIC + Peptide ([1]; S. maltophilia SMA035): 4 mg/L
Peptide MIC Alone ([1]; S. maltophilia SMA035, Tobramycin section): 128 mg/L
FIC ([1]; peptide + Piperacillin, P. aeruginosa 22): 0.52
FIC ([1]; peptide + Piperacillin, P. aeruginosa 23): 0.53
FIC ([1]; peptide + Piperacillin, S. aureus 18 MRSA): 0.50
FIC ([1]; peptide + Piperacillin, S. aureus 19 MRSA): 0.38
FIC ([1]; peptide + Tobramycin, A. baumannii ABI001): 0.50
FIC ([1]; peptide + Tobramycin, E. coli ECO006): 0.53
FIC [1, 7]: 0.52
FIC [1, 8]: 0.51
FIC ([1]; peptide + Tobramycin, S. maltophilia SMA035): 0.38
MIC ([2]; S. aureus SA003): 2 mg/L
Peptide MIC values ([2]; S. aureus MRSA9): 2 mg/L
Peptide MIC values ([2]; S. aureus MRSA13): 16 mg/L
Peptide MIC values ([2]; S. aureus MRSA17): 4 mg/L
